The record followed here is patent US10308643B2, “Heterocyclic compound” (Takeda Pharmaceutical Company Limited, priority 2015, dated 2019).

Assay type in all cases: biochemical
One test addresses T1, HDAC6 enzyme (Homo sapiens, UniProt Q9UBN7).
T1 construct: transducing full length HDAC1 and HDAC6 genes into Sf-9 insect cells; GST; purchased SignalChem; host or cells: Sf-9 insect cells
T1 sequence (Q9UBN7 1-1215): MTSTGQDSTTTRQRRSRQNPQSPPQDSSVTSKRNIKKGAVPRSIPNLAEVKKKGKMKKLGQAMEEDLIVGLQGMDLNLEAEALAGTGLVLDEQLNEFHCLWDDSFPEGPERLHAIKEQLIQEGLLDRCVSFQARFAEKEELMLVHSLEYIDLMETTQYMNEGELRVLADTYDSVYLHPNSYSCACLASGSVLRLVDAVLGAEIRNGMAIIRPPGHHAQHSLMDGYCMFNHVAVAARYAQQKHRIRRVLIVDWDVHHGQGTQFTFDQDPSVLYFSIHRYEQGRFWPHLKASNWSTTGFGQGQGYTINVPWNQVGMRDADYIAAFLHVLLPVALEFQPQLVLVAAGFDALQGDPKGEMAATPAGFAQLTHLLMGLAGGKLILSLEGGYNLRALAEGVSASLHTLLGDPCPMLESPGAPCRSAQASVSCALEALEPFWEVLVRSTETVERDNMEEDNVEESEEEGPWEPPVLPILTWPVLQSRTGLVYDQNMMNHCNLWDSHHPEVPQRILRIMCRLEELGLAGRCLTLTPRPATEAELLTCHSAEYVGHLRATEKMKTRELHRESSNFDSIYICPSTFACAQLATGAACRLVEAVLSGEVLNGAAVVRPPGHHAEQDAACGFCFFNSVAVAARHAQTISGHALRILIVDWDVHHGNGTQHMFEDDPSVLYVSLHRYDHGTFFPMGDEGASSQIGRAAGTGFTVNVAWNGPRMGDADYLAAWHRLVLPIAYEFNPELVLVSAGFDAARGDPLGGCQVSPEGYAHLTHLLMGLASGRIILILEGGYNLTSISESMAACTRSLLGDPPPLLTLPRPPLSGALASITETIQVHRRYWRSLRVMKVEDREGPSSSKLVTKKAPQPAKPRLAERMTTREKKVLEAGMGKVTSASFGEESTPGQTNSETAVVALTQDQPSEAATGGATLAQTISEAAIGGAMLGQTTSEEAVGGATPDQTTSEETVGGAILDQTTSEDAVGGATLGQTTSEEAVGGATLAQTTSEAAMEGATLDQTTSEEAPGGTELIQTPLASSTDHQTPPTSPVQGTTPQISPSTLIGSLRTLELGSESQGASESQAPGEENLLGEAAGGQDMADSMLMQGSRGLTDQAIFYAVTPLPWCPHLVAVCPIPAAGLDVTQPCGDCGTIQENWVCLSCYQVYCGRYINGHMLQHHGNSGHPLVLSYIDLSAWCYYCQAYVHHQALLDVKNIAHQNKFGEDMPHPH
As to the kind of experiment: HDAC1/6 Enzyme Inhibitory Assay (HDAC-Glo I/II Assay kit), HDAC6. As to conditions: 1 μM test compound, wells without enzyme = 100% inhibition; for inhibition at 1 µM: read-out: HDAC6 inhibitory rate (%) (1 μM). The procedure, abridged: (§1)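 Luminescence readout (HDAC-Glo I/II) after 20 min RT reaction of GST-purified full-length HDAC1 or HDAC6 (Sf-9 expressed) with substrate-developer; enzyme and compound preincubated 60 min RT; buffer 24 mM Tris-HCl pH 7.5, 0.6 mM glutathione, 0.01% Tween-20; no-enzyme wells = 100% inhibition.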

Another test concerns the target T2, HDAC1 enzyme (Homo sapiens, UniProt Q13547).
T2 construct: transducing full length HDAC1 and HDAC6 genes into Sf-9 insect cells; GST; purchased SignalChem; host or cells: Sf-9 insect cells
Nature of the test: HDAC1/6 Enzyme Inhibitory Assay (HDAC-Glo I/II Assay kit), HDAC1. The conditions noted are these: 1 μM test compound, wells without enzyme = 100% inhibition; for inhibition at 1 µM: read-out: HDAC1 inhibitory rate (%) (1 μM). The procedure, abridged: as §1

For another test, the target named is T3, HDAC9 enzyme (Homo sapiens, UniProt Q9UKV0).
T3 construct: transducing full length HDAC9 gene into Sf-9 insect cells; made in house; host or cells: Sf-9 insect cells
As to the kind of experiment: HDAC9 Enzyme Inhibitory Assay (HDAC-Glo class IIa). The conditions noted are these: 1 μM test compound, wells without enzyme = 100% inhibition; for inhibition at 1 µM: read-out: HDAC9 inhibitory rate (%) (1 μM). The method in brief: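 Luminescent HDAC-Glo class IIa readout after a 20 min room-temperature reaction; relative inhibition referenced to enzyme-free wells as 100%. Test compound first preincubated 60 min with Sf-9-expressed, Ni-NTA-purified full-length HDAC9 in pH 7.5 Tris buffer containing 135 mM NaCl, 0.6 mM glutathione and 0.01% Tween-20.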

T3 sequence (Q9UKV0 whole entry, species assumed): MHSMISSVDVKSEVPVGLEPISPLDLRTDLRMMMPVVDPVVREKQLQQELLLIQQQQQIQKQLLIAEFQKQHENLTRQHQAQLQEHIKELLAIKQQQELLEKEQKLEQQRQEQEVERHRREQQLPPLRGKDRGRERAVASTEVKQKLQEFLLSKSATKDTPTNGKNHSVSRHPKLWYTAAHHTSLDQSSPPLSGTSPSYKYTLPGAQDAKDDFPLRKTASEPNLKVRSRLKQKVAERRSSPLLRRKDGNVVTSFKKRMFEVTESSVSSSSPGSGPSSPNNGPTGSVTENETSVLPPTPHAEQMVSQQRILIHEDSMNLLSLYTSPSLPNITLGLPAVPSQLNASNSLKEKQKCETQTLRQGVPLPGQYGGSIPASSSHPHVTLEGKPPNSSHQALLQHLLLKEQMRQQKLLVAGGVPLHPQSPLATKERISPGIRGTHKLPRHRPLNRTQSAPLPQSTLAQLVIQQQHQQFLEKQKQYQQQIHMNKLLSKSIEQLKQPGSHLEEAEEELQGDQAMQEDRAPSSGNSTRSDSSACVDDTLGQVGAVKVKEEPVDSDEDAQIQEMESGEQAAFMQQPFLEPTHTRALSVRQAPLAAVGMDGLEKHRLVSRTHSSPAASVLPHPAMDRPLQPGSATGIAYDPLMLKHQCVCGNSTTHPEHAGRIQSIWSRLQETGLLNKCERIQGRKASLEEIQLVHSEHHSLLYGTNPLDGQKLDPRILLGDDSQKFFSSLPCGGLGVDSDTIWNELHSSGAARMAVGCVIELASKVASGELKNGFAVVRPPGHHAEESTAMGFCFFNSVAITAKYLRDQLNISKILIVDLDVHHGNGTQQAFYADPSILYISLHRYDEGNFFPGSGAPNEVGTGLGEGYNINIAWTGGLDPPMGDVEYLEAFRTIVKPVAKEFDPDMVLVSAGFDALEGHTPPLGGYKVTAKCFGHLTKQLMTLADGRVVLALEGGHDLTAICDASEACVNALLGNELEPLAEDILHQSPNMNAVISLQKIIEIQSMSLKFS
T2 sequence (Q13547 whole entry): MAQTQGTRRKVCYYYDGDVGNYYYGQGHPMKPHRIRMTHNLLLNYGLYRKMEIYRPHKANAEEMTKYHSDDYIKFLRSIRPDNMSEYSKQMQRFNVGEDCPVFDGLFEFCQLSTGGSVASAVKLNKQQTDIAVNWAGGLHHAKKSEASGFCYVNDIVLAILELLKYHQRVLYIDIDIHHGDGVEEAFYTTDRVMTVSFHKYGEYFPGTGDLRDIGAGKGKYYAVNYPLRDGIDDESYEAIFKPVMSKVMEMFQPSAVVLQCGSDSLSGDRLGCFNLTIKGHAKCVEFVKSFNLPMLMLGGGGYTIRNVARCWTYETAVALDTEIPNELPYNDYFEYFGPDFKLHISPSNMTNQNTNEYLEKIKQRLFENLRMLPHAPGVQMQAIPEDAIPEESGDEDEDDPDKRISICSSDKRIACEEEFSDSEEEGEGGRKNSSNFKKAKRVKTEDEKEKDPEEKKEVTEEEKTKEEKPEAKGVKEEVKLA

Regarding `CC(=O)N1CC[C@@H](N2Cc3ccc(-c4noc(C(F)(F)F)n4)cc3C2=O)[C@@H](c2ccccc2)C1` [Example 23, 2-((3S,4R)-1-acetyl-3-phenylpiperidin-4-yl)-6-(5-(trifluoromethyl)-1,2,4-oxadiazol-3-yl)isoindolin-1-one], the inhibition at 1 µM at HDAC6 enzyme amounted to 98%; on HDAC1 enzyme it was 58%; at HDAC9 enzyme, 84%.

For the compound `O=C1CCCN1[C@@H]1CCCC[C@H]1N1Cc2ncc(-c3noc(C(F)(F)F)n3)cc2C1=O` [Example 186, 6-((1R,2R)-2-(2-oxopyrrolidin-1-yl)cyclohexyl)-3-(5-(trifluoromethyl)-1,2,4-oxadiazol-3-yl)-6,7-dihydro-5H-pyrrolo[3,4-b]pyridin-5-one], the values for the inhibition at 1 µM on HDAC6 enzyme, on HDAC1 enzyme and at HDAC9 enzyme were 97%, 26% and 95%, respectively.

As for `O=C1c2cc(-c3noc(C(F)(F)F)n3)ccc2CN1[C@@H]1CCNC[C@H]1c1ccc(F)c(F)c1` (relative stereo) [Example 46, 2-(trans-3-(3,4-difluorophenyl)piperidin-4-yl)-6-(5-(trifluoromethyl)-1,2,4-oxadiazol-3-yl)isoindolin-1-one], the inhibition at 1 µM turned out to be 99% at HDAC6 enzyme, 94% on HDAC1 enzyme and 99% at HDAC9 enzyme.

On to `O=C(N[C@H]1CCCC[C@@H]1N1Cc2ccc(-c3noc(C(F)(F)F)n3)cc2C1=O)[C@H]1CCCO1` [Example 218, (2R)-N-((1S,2S)-2-(1-oxo-6-(5-(trifluoromethyl)-1,2,4-oxadiazol-3-yl)-1,3-dihydro-2H-isoindol-2-yl)cyclohexyl)tetrahydrofuran-2-carboxamide], for which the inhibition at 1 µM amounted to 44% at HDAC6 enzyme, 5% on HDAC1 enzyme and 29% on HDAC9 enzyme.

With `N[C@H]1CCCC[C@H]1N1Cc2ccc(-c3noc(C(F)(F)F)n3)cc2C1=O` (relative stereo) [Example 199, 2-(cis-2-aminocyclohexyl)-6-(5-(trifluoromethyl)-1,2,4-oxadiazol-3-yl)isoindolin-1-one], the inhibition at 1 µM at HDAC6 enzyme was 68%; on HDAC1 enzyme it was 5%; at HDAC9 enzyme, 75%.

Turning to `CC(C)(C)OC(=O)N1CC[C@H](N2Cc3cc(-c4noc(C(F)(F)F)n4)ccc3C2=O)[C@H](c2ccccc2)C1` (relative stereo) [Example 78, tert-butyl cis-4-(1-oxo-5-(5-(trifluoromethyl)-1,2,4-oxadiazol-3-yl)-1,3-dihydro-2H-isoindol-2-yl)-3-phenylpiperidine-1-carboxylate], the inhibition at 1 µM on HDAC6 enzyme is 11%; at HDAC1 enzyme, -3%; on HDAC9 enzyme, 76%.

In the case of `O=C(N[C@@H]1CCCC[C@H]1N1Cc2ccc(-c3noc(C(F)(F)F)n3)cc2C1=O)C1CC1` [Example 32, N-((1R,2R)-2-(1-oxo-6-(5-(trifluoromethyl)-1,2,4-oxadiazol-3-yl)-1,3-dihydro-2H-isoindol-2-yl)cyclohexyl)cyclopropanecarboxamide], the inhibition at 1 µM at HDAC6 enzyme is 99%; on HDAC1 enzyme, 5%; on HDAC9 enzyme, 52%.

As to `O=C1CCC2(CCC(N3Cc4ccc(-c5noc(C(F)(F)F)n5)cc4C3=O)CC2)N1` (stereo not drawn) [Example 64, (5r,8r)-8-(1-oxo-6-(5-(trifluoromethyl)-1,2,4-oxadiazol-3-yl)-1,3-dihydro-2H-isoindol-2-yl)-1-azaspiro[4.5]decan-2-one], the results for the inhibition at 1 µM at HDAC6 enzyme, at HDAC1 enzyme and at HDAC9 enzyme were 93%, 6% and 70%, respectively.

As to `O=C1CCC(C(=O)N[C@@H]2CCCC[C@H]2N2Cc3ccc(-c4noc(C(F)(F)F)n4)cc3C2=O)=NN1` [Example 118, 6-oxo-N-((1R,2R)-2-(1-oxo-6-(5-(trifluoromethyl)-1,2,4-oxadiazol-3-yl)-1,3-dihydro-2H-isoindol-2-yl)cyclohexyl)-1,4,5,6-tetrahydropyridazine-3-carboxamide], the results for the inhibition at 1 µM on HDAC6 enzyme, on HDAC1 enzyme and at HDAC9 enzyme were 98%, 5% and 46%, respectively.

Consider `CC(C)(C)OC(=O)N[C@H]1CCCC[C@H]1N1Cc2ccc(-c3noc(C(F)(F)F)n3)cc2C1=O` [Example 85, tert-butyl ((1S,2R)-2-(1-oxo-6-(5-(trifluoromethyl)-1,2,4-oxadiazol-3-yl)-1,3-dihydro-2H-isoindol-2-yl)cyclohexyl)carbamate], for which the inhibition at 1 µM was 98% at HDAC6 enzyme, 41% on HDAC1 enzyme and 67% at HDAC9 enzyme.

Take `O=C1c2cc(-c3noc(C(F)(F)F)n3)ccc2CN1[C@@H]1CCCC[C@H]1NC(=O)C1(CO)CC1` [Example 153, 1-(hydroxymethyl)-N-((1R,2R)-2-(1-oxo-6-(5-(trifluoromethyl)-1,2,4-oxadiazol-3-yl)-1,3-dihydro-2H-isoindol-2-yl)cyclohexyl) cyclopropanecarboxamide]: the inhibition at 1 µM on HDAC6 enzyme turned out to be 100%; at HDAC1 enzyme it was 6%; on HDAC9 enzyme, 52%.

For `O=C(N[C@@H]1CCCC[C@H]1N1Cc2ccc(-c3noc(C(F)(F)F)n3)cc2C1=O)N1CC2CC1CO2` (stereo partly drawn) [Example 157, N-((1R,2R)-2-(1-oxo-6-(5-(trifluoromethyl)-1,2,4-oxadiazol-3-yl)-1,3-dihydro-2H-isoindol-2-yl)cyclohexyl)-2-oxa-5-azabicyclo[2.2.1]heptane-5-carboxamide], the “HDAC6 inhibitory rate (%) (1 μM)” value on HDAC6 enzyme turned out to be 96%. At HDAC1 enzyme (1 µM), the “HDAC1 inhibitory rate (%) (1 μM)” value is on record as −2%. The “HDAC9 inhibitory rate (%) (1 μM)” value at HDAC9 enzyme (1 µM) stood at 15%.

In the case of `O=C(N[C@H]1CCOC[C@@H]1N1Cc2ccc(-c3noc(C(F)(F)F)n3)cc2C1=O)[C@@H]1CCOC1` [Example 209, (3R)-N-((3R,4S)-3-(1-oxo-6-(5-(trifluoromethyl)-1,2,4-oxadiazol-3-yl)-1,3-dihydro-2H-isoindol-2-yl)tetrahydro-2H-pyran-4-yl)tetrahydrofuran-3-carboxamide], the results for the inhibition at 1 µM at HDAC6 enzyme, on HDAC1 enzyme and on HDAC9 enzyme were 48%, 13% and 51%, respectively.

On to `O=C(N[C@@H]1CCOC[C@H]1N1Cc2ccc(-c3noc(C(F)(F)F)n3)cc2C1=O)C1CCOC1` (stereo partly drawn) [Example 205, N-((3S,4R)-3-(1-oxo-6-(5-(trifluoromethyl)-1,2,4-oxadiazol-3-yl)-1,3-dihydro-2H-isoindol-2-yl)tetrahydro-2H-pyran-4-yl)tetrahydrofuran-3-carboxamide], for which the values for the inhibition at 1 µM at HDAC6 enzyme, on HDAC1 enzyme and on HDAC9 enzyme were 99%, 5% and 52%, respectively.

Consider `CC1(C(=O)N[C@H]2CCCC[C@@H]2N2Cc3ccc(-c4noc(C(F)(F)F)n4)cc3C2=O)COC1` [Example 193, 3-methyl-N-((1S,2S)-2-(1-oxo-6-(5-(trifluoromethyl)-1,2,4-oxadiazol-3-yl)-1,3-dihydro-2H-isoindol-2-yl)cyclohexyl)oxetane-3-carboxamide], for which the inhibition at 1 µM at HDAC6 enzyme amounted to 43%; at HDAC1 enzyme, 4%; on HDAC9 enzyme, 32%.

Consider `O=C(N[C@@H]1CCCC[C@H]1N1Cc2ccc(-c3noc(C(F)(F)F)n3)cc2C1=O)c1ccncn1` [Example 115, N-((1R,2R)-2-(1-oxo-6-(5-(trifluoromethyl)-1,2,4-oxadiazol-3-yl)-1,3-dihydro-2H-isoindol-2-yl)cyclohexyl)pyrimidine-4-carboxamide], for which the inhibition at 1 µM on HDAC6 enzyme was 99%; at HDAC1 enzyme, 16%; on HDAC9 enzyme it was 64%.
